Reference: article PMC5484532 (Biochimie, 2017)

Biological target: Leishmania donovani tyrosyl-tRNA synthetase (LdTyrRS) (Leishmania donovani, UniProt A0A3Q8ID88)
Assay: X-ray co-crystal structure at […] Å
Format: biochemical

IC50: 690 pM
Compound: Nc1ncnc2c1ncn2[C@@H]1O[C@H](COS(=O)(=O)NC(=O)[C@@H](N)Cc2ccc(O)cc2)[C@@H](O)[C@H]1O [TyrSA, 5'-O-[N-(L-tyrosyl)sulfamoyl]adenosine]
